Molecules are shown by their SMILES.

The subject of data set [1] is CFPAC-1 (ductal pancreatic adenocarcinoma). Nature of the data set: Proliferation assay (MTT, 72 h) on CFPAC-1. It counts as cell-based. The note with it: Homo sapiens. As for the experimental part:
(§1) Human carcinoma cell lines A549 (lung carcinoma), HeLa (cervical carcinoma), SW620 (colorectal adenocarcinoma, metastatic), and CFPAC-1 (pancreatic cancer, derived from metastatic: liver), normal human lung (WI38) and foreskin (HFF-1) fibroblasts were obtained from the American Type Culture Collection (ATCC). Cells were cultured in humidified atmosphere at 37 °C with 5% CO2. As growth medium, Dulbecco’s modified Eagle medium (DMEM) was used with the addition of foetal bovine serum (10%), L-glutamine (2 mM) and antibiotics: streptomycin (100 µg/ml) and penicillin (100 U/ml).
(§2) Cells were seeded onto 96-well microtiter plates at a seeding density of 3000 cells/well for carcinoma cell lines, and 5000 cells/well for normal human fibroblasts. The next day, cells were treated with test agents in five different concentrations (0.01–100 µM) and further incubated for 72 h. […] Following 72 h incubation, the MTT assay was performed and measured absorbances were transformed into percentage of cell growth as described previously. Results were obtained from three independent experiments. IC50 values were calculated using linear regression analysis and results were statistically analysed by ANOVA, Tukey post-hoc test (p < .05).

The test system of data set [2] is SW620 (colorectal adenocarcinoma, metastatic). Nature of the data set: Proliferation assay (MTT, 72 h) on SW620. It counts as cell-based. The note with it: Homo sapiens, SW-620. As for the experimental part: as §1, §2
Data set [3] has as its system HeLa (cervical carcinoma). Nature of the data set: Proliferation assay (MTT, 72 h) on HeLa. It is filed as cell-based. Conditions: Homo sapiens. As for the experimental part:
as §1, §2

Data set [4] deals with WI38 normal human lung fibroblasts. The data set can be described thus: Proliferation assay (MTT, 72 h) on normal lung fibroblasts WI38. It is filed as cell-based. The note with it: WI-38, read-out: IC50 WI38/HFF-1 (WI38). The procedure:
as §1, §2

The next data set has as its system A549 (lung carcinoma). The data set can be described thus: Proliferation assay (MTT, 72 h) on A549. The note with it: Homo sapiens, A549 lung adenocarcinoma. It counts as cell-based. As for the experimental part:
as §1, §2

As to `Fc1ccc(-n2cc(Cn3ccc4cc(F)ccc43)nn2)cc1` [Compound 10a, 1-{[1-(4-Fluorophenyl)-1H-1,2,3-triazol-4-yl]methyl}-5-fluoro-1H-indole], the IC50 (in data set [1]; in data set [2]; in data set [3]; in data set [4]; in the data set with A549 (lung carcinoma)) was greater than 100 µM in each case.
As a reminder, the melting point is the temperature of the solid-liquid transition. As to `FC(F)(F)c1ccc(-n2cc(Cn3cnc4ccnc(Cl)c43)nn2)cc1` [Compound 7c, 4-Chloro-3-{[1-(4-(trifluoromethyl)phenyl)-1H-1,2,3-triazol-4-yl]methyl}-3H-imidazo[4,5-c]pyridine], the melting point is 183 to 185 °C. For the same compound, in data set [1], the IC50 amounted to 89.2 µM. In data set [2], the IC50 is 69 µM. The IC50 in data set [3] stood at 36.8 µM. Also, in data set [4], the IC50 is 19.4 µM. Also, the IC50 in the data set with A549 (lung carcinoma) was greater than 100 µM.
As to `Fc1ccccc1-n1cc(Cn2cnc3c(Cl)ncnc32)nn1` [Compound 4d, 6-Chloro-9-{[1-(2-fluorophenyl)-1H-1,2,3-triazol-4-yl]methyl}-9H-purine], the melting point was in the range of 143 to 145 °C. The compound further gave an IC50 in data set [1] of 31.1 µM. The IC50 in data set [2] was 41.8 µM. Further, the IC50 in data set [3] stood at 33.2 µM. The IC50 in data set [4] was 23.9 µM. Moreover, the IC50 with A549 (lung carcinoma) was found to be 54.6 µM.
The compound `O=c1cc(Cn2cc(Cn3cc(Br)c4c(Cl)ncnc43)nn2)c2ccc(O)cc2o1` [Compound 9e, 4-{[4-((5-Bromo-4-chloro-7H-pyrrolo[2,3-d]pyrimidin-7-yl)methyl)-1H-1,2,3-triazol-1-yl]methyl}-7-hydroxy-2H-chromen-2-one] registered a melting point greater than 250 °C. The compound further came in with an IC50 in data set [1] of 47.3 µM. The IC50 in data set [2] came out at 45.1 µM. For the same compound, the IC50 in data set [3] came to 24.5 µM. The IC50 in data set [4] amounted to 10.8 µM. The compound further showed an IC50 in the data set on A549 (lung carcinoma) of 45.5 µM.
As for `O=c1cc(Cn2cc(Cn3ccc4cc(F)ccc43)nn2)c2ccc(O)cc2o1` [Compound 10e, 4-{[4-((5-Fluoro-1H-indol-1-yl)methyl)-1H-1,2,3-triazol-1-yl]methyl}-7-hydroxy-2H-chromen-2-one], the melting point was in the range of 181 to 184 °C. Further, the IC50 in data set [1] came out at 77.1 µM. The IC50 in data set [2] is 57.6 µM. This compound also registered an IC50 in data set [3] of 47.6 µM. For the same compound, in data set [4], the IC50 stood at 45.7 µM. The same compound had an IC50 with A549 (lung carcinoma) of 51.9 µM.
As for `Fc1ccccc1-n1cc(Cn2cc(Br)c3c(Cl)ncnc32)nn1` [Compound 9d, 5-Bromo-4-chloro-7-{[1–(2-fluorophenyl)-1 H-1,2,3-triazol-4-yl]methyl}-7 H-pyrrolo[2,3-d]pyrimidine], the melting point lay within 145 to 147 °C. In addition, the IC50 in data set [1] came out at 65.1 µM. The compound further showed an IC50 in data set [2] of 65.9 µM. The IC50 in data set [3] was 20 µM. The IC50 in data set [4] was found to be 48.5 µM. Also, the IC50 in the data set with A549 (lung carcinoma) worked out at 86.4 µM.
For the compound `FC(F)(F)c1ccc(-n2cc(Cn3cnc4ccccc43)nn2)cc1` [Compound 12c, 1-{[1–(4-(trifluoromethyl)phenyl)-1H-1,2,3-triazol-4-yl]methyl}-1H-benzo[d]imidazole], the IC50 in data set [1] is 56.4 µM; in data set [2], greater than 100 µM; in data set [3], 30.6 µM; in data set [4] it was greater than 100 µM; in the data set with A549 (lung carcinoma) it was 14.2 µM.
Turning to `Fc1ccc2c(ccn2Cc2cn(-c3ccccc3F)nn2)c1` [Compound 10d, 5-Fluoro-1-{[1-(2-fluorophenyl)-1H-1,2,3-triazol-4-yl]methyl}-1H-indole], the IC50 was greater than 100 µM in data set [1]; greater than 100 µM in data set [2]; 82.9 µM in data set [3]; greater than 100 µM in data set [4]; greater than 100 µM in the data set with A549 (lung carcinoma).
With `Fc1ccccc1-n1cc(Cn2cnc3c(Cl)nccc32)nn1` [Compound 5d, 4-Chloro-1-{[1–(2-fluorophenyl)-1H-1,2,3-triazol-4-yl]methyl}-1H-imidazo[4,5-c]pyridine], the melting point lay within 124 to 127 °C. This compound also showed an IC50 in data set [1] greater than 100 µM. Besides, in data set [2], the IC50 stood at 90.2 µM. The same compound showed an IC50 in data set [3] greater than 100 µM. Moreover, in data set [4], the IC50 came to 23.9 µM. The IC50 in the data set with A549 (lung carcinoma) stood at 73.9 µM.
Consider `Fc1ccccc1-n1cc(Cn2ccc3c(Cl)ncnc32)nn1` [Compound 8d, 4-Chloro-7-{[1-(2-fluorophenyl)-1H-1,2,3-triazol-4-yl]methyl}-7H-pyrrolo[2,3-d]pyrimidine], for which the melting point lay within 112 to 114 °C. This compound returned an IC50 in data set [1] of 35.2 µM. This compound also registered an IC50 in data set [2] of 65.5 µM. Further, the IC50 in data set [3] is 83.3 µM. In addition, the IC50 in data set [4] came to 22.5 µM. The same compound displayed an IC50 in the data set with A549 (lung carcinoma) of 69 µM.
Regarding `Clc1ccc(-n2cc(Cn3ccc4c(Cl)ncnc43)nn2)cc1` [Compound 8b, 4-Chloro-7-{[1-(4-chlorophenyl)-1H-1,2,3-triazol-4-yl]methyl}-7H-pyrrolo[2,3-d]pyrimidine], the IC50 was 47.7 µM in data set [1]; 44.6 µM in data set [2]; 65.5 µM in data set [3]; 21 µM in data set [4]; 64.5 µM in the data set with A549 (lung carcinoma).
For `Fc1ccc(-n2cc(Cn3cnc4c(Cl)ncnc43)nn2)cc1` [Compound 4a, 6-Chloro-9-{[1–(4-fluorophenyl)-1 H-1,2,3-triazol-4-yl]methyl}-9 H-purine] the same measures were 33.4 µM, 38.9 µM, 34.2 µM, 5.21 µM and 53.2 µM.
For `O=c1cc(Cn2cc(Cn3cnc4ccnc(Cl)c43)nn2)c2ccc(O)cc2o1` [Compound 7e, 4-{[4-((4-Chloro-3H-imidazo[4,5-c]pyridin-3-yl)methyl)-1H-1,2,3-triazol-1-yl]methyl}-7-hydroxy-2H-chromen-2-one] the same measures were greater than 100 µM, greater than 100 µM, 8.77 µM, 7.62 µM and greater than 100 µM.
For `O=c1cc(Cn2cc(Cn3cnc4c(Cl)ncnc43)nn2)c2ccc(O)cc2o1` [Compound 4e, 4-{[4-((6-Chloro-9H-purin-9-yl)methyl)-1H-1,2,3-triazol-1-yl]methyl}-7-hydroxy-2H-chromen-2-one] the same measures were greater than 100 µM, 92.5 µM, 58 µM, 6.58 µM and 89 µM.
Turning to `FC(F)(F)c1ccc(-n2cc(Cn3cnc4c(Cl)ncnc43)nn2)cc1` [Compound 4c, 6-Chloro-9-{[1-(4-(trifluoromethyl)phenyl)-1H-1,2,3-triazol-4-yl]methyl}-9H-purine], the IC50 in data set [1] is 7.9 µM; in data set [2], 14.7 µM; in data set [3] it was 12.3 µM; in data set [4], 0.75 µM; in the data set with A549 (lung carcinoma), 15.9 µM.
Consider `O=c1cc(Cn2cc(Cn3cnc4c(Cl)nccc43)nn2)c2ccc(O)cc2o1` [Compound 5e], for which the IC50 is greater than 100 µM in data set [1]; greater than 100 µM in data set [2]; greater than 100 µM in data set [3]; 60.5 µM in data set [4]; greater than 100 µM in the data set on A549 (lung carcinoma).
For `Fc1ccccc1-n1cc(Cn2cnc3ccccc32)nn1` [Compound 12d, 1-{[1–(2-fluorophenyl)-1H-1,2,3-triazol-4-yl]methyl}-1H-benzo[d]imidazole], the IC50 was 34.7 µM in data set [1]; greater than 100 µM in data set [2]; 21.9 µM in data set [3]; 30.6 µM in data set [4]; 36.2 µM in the data set on A549 (lung carcinoma).
For `Fc1ccc(-n2cc(Cn3cnc4ccccc43)nn2)cc1` [Compound 12a, 1-{[1-(4-fluorophenyl)-1H-1,2,3-triazol-4-yl]met-hyl}-1H-benzo[d]imidazole], the IC50 in data set [1] came out at 86.5 µM; in data set [2], 99.9 µM; in data set [3], 71.7 µM; in data set [4] it was 91.9 µM; with A549 (lung carcinoma) it was 76.3 µM.
The like results for `FC(F)(F)c1ccc(-n2cc(Cn3ccc4c(Cl)ncnc43)nn2)cc1` [Compound 8c, 4-Chloro-7-{[1-(4-(trifluoromethyl)phenyl)-1H-1,2,3-triazol-4-yl]methyl}-7H-pyrrolo[2,3-d]pyrimidine] were, in that order, 46.6 µM, 37.1 µM, 38.8 µM, 4.62 µM and 46.9 µM.
As for `Fc1ccc(-n2cc(Cn3ccc4c(Cl)ncnc43)nn2)cc1` [Compound 8a, 4-Chloro-7-{[1-(4-fluorophenyl)-1H-1,2,3-triazol-4-yl]methyl}-7H-pyrrolo[2,3-d]pyrimidine], the IC50 in data set [1] is 48.4 µM; in data set [2], 8.5 µM; in data set [3], 39.4 µM; in data set [4], 32.2 µM; in the data set on A549 (lung carcinoma), 85.4 µM.
Regarding `O=c1cc(Cn2cc(Cn3cnc4ccccc43)nn2)c2ccc(O)cc2o1` [Compound 12e, 4-{4-[((1H-benzo[d]imidazol-1-yl)methyl)-1H-1,2,3-triazol-1-yl]methyl}-7-hydroxy-4a,8a-dihydro-2H-chromen-2-on], the IC50 (in data set [1]; in data set [2]; in data set [3]; in data set [4]; in the data set with A549 (lung carcinoma)) was greater than 100 µM in each case.

Source of the values: paper PMC6009932, “Small molecule purine and pseudopurine derivatives: synthesis, cytostatic evaluations and investigation of growth inhibitory effect in non-small cell lung cancer A549” (Journal of Enzyme Inhibition and Medicinal Chemistry, 2017).
